# In patent US20020137929A1, “1 - (3-heterocyclylphenyl) isothiourea, -isourea, -guanidine and -amidine herbicidal agents” (Intellectual Property Department, BASF Aktiengesellschaft, priority 1998, published 2002):
# Assays:
# ABUTH (Velvetleaf) [1] = test: Postemergence herbicidal evaluation; assay type: in vivo, Abutilon theophrasti; conditions: postemergence
# Method in brief: (§1)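 Young plants, roughly two weeks from seeding, receive the active ingredient as a sprayed dispersion (acetone/water 50/50, 0.5% TWEEN 20) at 40 psi. Doses span about 0.0156 to 0.500 kg/ha. A visual score from 0 to 9 compares treated with control plants four to five weeks on.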
# [2] = test system: IPOHE (Morningglory, Ivyleaf); test: Postemergence herbicidal evaluation; assay type: in vivo, Ipomoea hederacea; conditions: postemergence
# Method in brief: as §1
# SETVI (Foxtail, Green) = test: Postemergence herbicidal evaluation; assay type: in vivo, Setaria viridis; conditions: postemergence
# Method in brief: as §1
# [3] = test system: GLXMAW (Soybean, Williams); test: Postemergence herbicidal evaluation; assay type: in vivo, Glycine max, (L.) Merr. cv Williams; conditions: postemergence
# Method in brief: as §1
# ZEAMX (Corn, Field) = test: Postemergence herbicidal evaluation; assay type: in vivo, Zea mays; conditions: postemergence
# Method in brief: as §1
# ABUTH (Velvetleaf) [4] = test: Preemergence herbicidal evaluation; assay type: in vivo, Abutilon theophrasti; conditions: rated 4-5 weeks after treatment
# Method in brief: (§2)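 In this greenhouse assay, monocot and dicot seeds are planted in soil and treated prior to emergence with an aqueous acetone spray (about 0.0156-0.500 kg/ha). Plants are assessed visually against control on a 0-9 scale after 4-5 weeks.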
# AMBEL (Ragweed, Common) = test: Preemergence herbicidal evaluation; assay type: in vivo, Ambrosia artemisifolia; conditions: rated 4-5 weeks after treatment
# Method in brief: as §2
# CASOB (Sicklepod) = test: Preemergence herbicidal evaluation; assay type: in vivo, Cassia obtusifolia; conditions: rated 4-5 weeks after treatment
# Method in brief: as §2
# [5] = test system: IPOHE (Morningglory, Ivyleaf); test: Preemergence herbicidal evaluation; assay type: in vivo, Ipomoea hederacea; conditions: rated 4-5 weeks after treatment
# Method in brief: as §2
# ECHCG (Barnyardgrass) = test: Preemergence herbicidal evaluation; assay type: in vivo, Echinochloa crus-galli; conditions: rated 4-5 weeks after treatment
# Method in brief: as §2
# [6] = test system: ECHORC (Watergrass (Calif.)); test: Preemergence weed control under flooded paddy conditions; assay type: in vivo, Echinochloa oryzoides; conditions: rated 3-4 weeks after treatment
# Method in brief: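 Seeds or propagules sown in silt loam kept flooded 1.5-3 cm; compounds in 50/50 acetone/water pipetted into flood water at about 0.0313 to 0.500 kg/ha. Greenhouse; visual 0-9 rating versus untreated control 3-4 weeks after treatment.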
# CYPSE (Flatsedge) = test: as above; assay type: in vivo, Cyperus serotinus; conditions: rated 3-4 weeks after treatment
# Method in brief: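 Values are visual 0-9 scores against a control for a preemergence application into paddy flood water at about 0.0313 to 0.500 kg/ha. Greenhouse duration was three to four weeks.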
# [7] = test system: ECHORC (Watergrass (Calif.)); test: Postemergence weed control under flooded paddy conditions; assay type: in vivo, Echinochloa oryzoides; conditions: postemergence weeds, 3-4 weeks after treatment
# Method in brief: (§3)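 Containers holding 3–5 cm weeds and rice at 1.5–2.5 leaves are flooded to 1.5–3 cm above soil. Compound in 50/50 v/v aqueous/acetone is then added directly to the water, about 0.0313–0.500 kg/ha. Plants are kept in the greenhouse and rated 0–9 visually at 3–4 weeks.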
# CYPIR (Rice Flatsedge) = test: as above; assay type: in vivo, Cyperus iria; conditions: postemergence weeds, 3-4 weeks after treatment
# Method in brief: as §3
structure (smiles),measurement,setting,value
CCOC(=O)CN1C(=O)C(CC(=O)O)S/C1=N/c1cc(-n2c(=O)cc(C(F)(F)F)n(C)c2=O)c(F)cc1Cl (centres unmarked) [Compound 16],ABUTH herbicidal rating,ABUTH (Velvetleaf) [1]; rate 0.0157 kg/ha,9.0
same,ABUTH herbicidal rating,ABUTH (Velvetleaf) [1]; rate 0.0313 kg/ha,9.0
same,ABUTH herbicidal rating,ABUTH (Velvetleaf) [1]; rate 0.0625 kg/ha,9.0
same,ABUTH herbicidal rating,ABUTH (Velvetleaf) [1]; rate 0.1250 kg/ha,9.0
same,ABUTH herbicidal rating,ABUTH (Velvetleaf) [1]; rate 0.2500 kg/ha,9.0
same,IPOHE herbicidal rating,[2]; rate 0.0157 kg/ha,9.0
same,IPOHE herbicidal rating,[2]; rate 0.0313 kg/ha,9.0
same,IPOHE herbicidal rating,[2]; rate 0.0625 kg/ha,9.0
same,IPOHE herbicidal rating,[2]; rate 0.1250 kg/ha,9.0
same,IPOHE herbicidal rating,[2]; rate 0.2500 kg/ha,9.0
same,SETVI herbicidal rating,"SETVI (Foxtail, Green); rate 0.0157 kg/ha",9.0
same,SETVI herbicidal rating,"SETVI (Foxtail, Green); rate 0.0313 kg/ha",7.8
same,SETVI herbicidal rating,"SETVI (Foxtail, Green); rate 0.0625 kg/ha",9.0
same,SETVI herbicidal rating,"SETVI (Foxtail, Green); rate 0.1250 kg/ha",9.0
same,SETVI herbicidal rating,"SETVI (Foxtail, Green); rate 0.2500 kg/ha",9.0
same,GLXMAW herbicidal rating,[3]; rate 0.0157 kg/ha,9.0
same,GLXMAW herbicidal rating,[3]; rate 0.0313 kg/ha,8.6
same,GLXMAW herbicidal rating,[3]; rate 0.0625 kg/ha,8.9
same,GLXMAW herbicidal rating,[3]; rate 0.1250 kg/ha,9.0
same,GLXMAW herbicidal rating,[3]; rate 0.2500 kg/ha,9.0
same,ZEAMX herbicidal rating,"ZEAMX (Corn, Field); rate 0.0157 kg/ha",8.0
same,ZEAMX herbicidal rating,"ZEAMX (Corn, Field); rate 0.0313 kg/ha",8.1
same,ZEAMX herbicidal rating,"ZEAMX (Corn, Field); rate 0.0625 kg/ha",8.4
same,ZEAMX herbicidal rating,"ZEAMX (Corn, Field); rate 0.1250 kg/ha",8.7
same,ZEAMX herbicidal rating,"ZEAMX (Corn, Field); rate 0.2500 kg/ha",9.0
same,ABUTH preemergence herbicidal rating,ABUTH (Velvetleaf) [4]; rate 0.0156 kg/ha,5.6
same,ABUTH preemergence herbicidal rating,ABUTH (Velvetleaf) [4]; rate 0.0313 kg/ha,8.1
same,ABUTH preemergence herbicidal rating,ABUTH (Velvetleaf) [4]; rate 0.0625 kg/ha,8.8
same,ABUTH preemergence herbicidal rating,ABUTH (Velvetleaf) [4]; rate 0.1250 kg/ha,8.9
same,ABUTH preemergence herbicidal rating,ABUTH (Velvetleaf) [4]; rate 0.2500 kg/ha,9.0
same,ABUTH preemergence herbicidal rating,ABUTH (Velvetleaf) [4]; rate 0.5000 kg/ha,9.0
same,AMBEL preemergence herbicidal rating,"AMBEL (Ragweed, Common); rate 0.0156 kg/ha",2.3
same,AMBEL preemergence herbicidal rating,"AMBEL (Ragweed, Common); rate 0.0313 kg/ha",4.5
same,AMBEL preemergence herbicidal rating,"AMBEL (Ragweed, Common); rate 0.0625 kg/ha",7.8
same,AMBEL preemergence herbicidal rating,"AMBEL (Ragweed, Common); rate 0.1250 kg/ha",8.5
same,AMBEL preemergence herbicidal rating,"AMBEL (Ragweed, Common); rate 0.2500 kg/ha",8.9
same,AMBEL preemergence herbicidal rating,"AMBEL (Ragweed, Common); rate 0.5000 kg/ha",9.0
same,CASOB preemergence herbicidal rating,CASOB (Sicklepod); rate 0.0156 kg/ha,0.3
same,CASOB preemergence herbicidal rating,CASOB (Sicklepod); rate 0.0313 kg/ha,0.6
same,CASOB preemergence herbicidal rating,CASOB (Sicklepod); rate 0.0625 kg/ha,2.7
same,CASOB preemergence herbicidal rating,CASOB (Sicklepod); rate 0.1250 kg/ha,5.3
same,CASOB preemergence herbicidal rating,CASOB (Sicklepod); rate 0.2500 kg/ha,8.3
same,CASOB preemergence herbicidal rating,CASOB (Sicklepod); rate 0.5000 kg/ha,9.0
same,IPOHE preemergence herbicidal rating,[5]; rate 0.0156 kg/ha,0.9
same,IPOHE preemergence herbicidal rating,[5]; rate 0.0313 kg/ha,3.5
same,IPOHE preemergence herbicidal rating,[5]; rate 0.0625 kg/ha,7.6
same,IPOHE preemergence herbicidal rating,[5]; rate 0.1250 kg/ha,8.7
same,IPOHE preemergence herbicidal rating,[5]; rate 0.2500 kg/ha,9.0
same,IPOHE preemergence herbicidal rating,[5]; rate 0.5000 kg/ha,9.0
same,ECHCG preemergence herbicidal rating,ECHCG (Barnyardgrass); rate 0.0156 kg/ha,0.0
same,ECHCG preemergence herbicidal rating,ECHCG (Barnyardgrass); rate 0.0313 kg/ha,0.3
same,ECHCG preemergence herbicidal rating,ECHCG (Barnyardgrass); rate 0.0625 kg/ha,0.6
same,ECHCG preemergence herbicidal rating,ECHCG (Barnyardgrass); rate 0.1250 kg/ha,1.8
same,ECHCG preemergence herbicidal rating,ECHCG (Barnyardgrass); rate 0.2500 kg/ha,4.4
same,ECHCG preemergence herbicidal rating,ECHCG (Barnyardgrass); rate 0.5000 kg/ha,7.1
same,Herbicidal rating ECHORC,[6]; 0.0313 kg/ha,0.0
same,Herbicidal rating ECHORC,[6]; 0.0625 kg/ha,0.0
same,Herbicidal rating ECHORC,[6]; 0.1250 kg/ha,0.0
same,Herbicidal rating ECHORC,[6]; 0.2500 kg/ha,0.0
same,Herbicidal rating CYPSE,CYPSE (Flatsedge); 0.0313 kg/ha,0.0
same,Herbicidal rating CYPSE,CYPSE (Flatsedge); 0.0625 kg/ha,0.0
same,Herbicidal rating CYPSE,CYPSE (Flatsedge); 0.1250 kg/ha,0.0
same,Herbicidal rating CYPSE,CYPSE (Flatsedge); 0.2500 kg/ha,0.0
same,Herbicidal rating ECHORC,[7]; rate 0.0313 kg/ha,0.0
same,Herbicidal rating ECHORC,[7]; rate 0.0625 kg/ha,0.0
same,Herbicidal rating ECHORC,[7]; rate 0.1250 kg/ha,0.0
same,Herbicidal rating ECHORC,[7]; rate 0.2500 kg/ha,0.0
same,Herbicidal rating CYPIR,CYPIR (Rice Flatsedge); rate 0.0313 kg/ha,0.0
same,Herbicidal rating CYPIR,CYPIR (Rice Flatsedge); rate 0.0625 kg/ha,0.0
same,Herbicidal rating CYPIR,CYPIR (Rice Flatsedge); rate 0.1250 kg/ha,4.0
same,Herbicidal rating CYPIR,CYPIR (Rice Flatsedge); rate 0.2500 kg/ha,9.0
